From PubChem BioAssay AID330 (DTP/NCI, 2004)
Several values for one entry are separate records, joined by “and”; a condition that tells them apart may be missing. Equal values may be shown once. Inconclusive results and toxic doses are left out. Rule for the calls: active = survival T/C of 150% or more; inactive = T/C below 125% in these data.

Test system: P388 leukemia ip, CD2F1 mice, survival T/C
Assay: NCI In Vivo Anticancer Drug Screen. Data for tumor model P388 Leukemia (intraperitoneal) in CD2F1 (CDF1) mice
Conditions: endpoint: median survival time, higher = longer survival
In short: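 Mice carrying the transplanted tumor received test compound or vehicle. Survival was recorded in each group, and the value is the treated-group measurement divided by that of the vehicle-treated control group.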

[1] = dose: 60.0 mg/kg/injection, schedule: Q01DX005 (ip), vehicle: saline with Tween-80
[2] = dose: 120.0 mg/kg/injection, schedule: Q01DX005 (ip), vehicle: saline with Tween-80
[3] = dose: 240.0 mg/kg/injection, schedule: Q01DX005 (ip), vehicle: saline with Tween-80
[4] = dose: 100.0 mg/kg/injection, schedule: Q01DX009 (ip), vehicle: saline
[5] = dose: 200.0 mg/kg/injection, schedule: Q01DX009 (ip), vehicle: saline
[6] = dose: 50.0 mg/kg/injection, schedule: Q01DX005 (ip), vehicle: saline with Tween-80
[7] = dose: 100.0 mg/kg/injection, schedule: Q01DX005 (ip), vehicle: saline with Tween-80
[8] = dose: 200.0 mg/kg/injection, schedule: Q01DX005 (ip), vehicle: saline with Tween-80
[9] = dose: 100.0 mg/kg/injection, schedule: Q01DX001 (ip), vehicle: Klucel (hydroxypropylcellulose) (HPC)
[10] = dose: 200.0 mg/kg/injection, schedule: Q01DX001 (ip), vehicle: Klucel (hydroxypropylcellulose) (HPC)
[11] = dose: 50.0 mg/kg/injection, schedule: Q01DX005 (ip), vehicle: saline + Tween-80 + alcohol
[12] = dose: 100.0 mg/kg/injection, schedule: Q01DX005 (ip), vehicle: saline + Tween-80 + alcohol

Measured: T/C

COc1cc(C(Nc2ncccn2)c2cc3c(cc2O)OCO3)cc(OC)c1O (stereo not drawn)
inactive: [1] 105 % of control | [2] 90 % of control | [3] 90 % of control

CCC[CH2][Sn]([CH2]CCC)([O][P+](=O)C[Si](C)(C)c1ccccc1)[O][P+](=O)C[Si](C)(C)c1ccccc1 (stereo not drawn)
inactive: [1] 108 % of control | [2] 115 % of control | [3] 122 % of control

O=C1OCC/C1=C/OS(=O)(=O)C(F)(F)F
inactive: dose: 18.8 mg/kg/injection, schedule: Q01DX009 (ip), vehicle: distilled water + Tween-80 101 % of control and 107 % of control | dose: 37.5 mg/kg/injection, schedule: Q01DX009 (ip), vehicle: distilled water + Tween-80 110 % of control | dose: 75.0 mg/kg/injection, schedule: Q01DX009 (ip), vehicle: distilled water + Tween-80 118 % of control and 123 % of control

COc1cccc(/C=C/c2ccnnc2)c1
inactive: dose: 50.0 mg/kg/injection, schedule: Q01DX009 (ip), vehicle: saline 96 % of control | [4] 95 % of control | [5] 95 % of control

CCC(C)CN1CCc2c3c(c(OC)c(OC)c2C1)CCC3 (stereo not drawn)
inactive: dose: 100.0 mg/kg/injection, schedule: Q04DX002 (ip), vehicle: saline 101 % of control | dose: 200.0 mg/kg/injection, schedule: Q04DX002 (ip), vehicle: saline 101 % of control

CC(=O)c1c(OCC(O)CNC(C)C)ccc2c(C)cc(=O)oc12 (stereo not drawn)
inactive: [6] 100 % of control | [7] 92 % of control

Cn1c2ccccc2c2nnc(-n3nc(-c4ccccc4)cc3N)nc21
inactive: dose: 100.0 mg/kg/injection, schedule: Q04DX002 (ip), vehicle: saline with Tween-80 92 % of control | dose: 200.0 mg/kg/injection, schedule: Q04DX002 (ip), vehicle: saline with Tween-80 92 % of control | dose: 400.0 mg/kg/injection, schedule: Q04DX002 (ip), vehicle: saline with Tween-80 91 % of control

COc1cccc(N=Nc2c(-c3ccccc3)nn(C(=S)S)c2C)c1
inactive: [6] 93 % of control | [7] 93 % of control | [8] 91 % of control

CC(C)c1c(O)c(O)c2c(c1O)C(=O)C(O)=C1C(C)(C)CCC[C@@]12C
inactive: dose: 12.5 mg/kg/injection, schedule: Q01DX005 (ip), vehicle: Klucel (hydroxypropylcellulose) (HPC) 98 % of control | dose: 25.0 mg/kg/injection, schedule: Q01DX005 (ip), vehicle: Klucel (hydroxypropylcellulose) (HPC) 94 % of control | dose: 50.0 mg/kg/injection, schedule: Q01DX005 (ip), vehicle: Klucel (hydroxypropylcellulose) (HPC) 102 % of control | dose: 100.0 mg/kg/injection, schedule: Q01DX005 (ip), vehicle: Klucel (hydroxypropylcellulose) (HPC) 100 % of control | dose: 200.0 mg/kg/injection, schedule: Q01DX005 (ip), vehicle: Klucel (hydroxypropylcellulose) (HPC) 109 % of control

COc1cc2c(cc1OC)CN1CCc3ccsc3C1C2 (stereo not drawn)
inactive: dose: 50.0 mg/kg/injection, schedule: Q01DX001 (ip), vehicle: Klucel (hydroxypropylcellulose) (HPC) 104 % of control | [9] 101 % of control | [10] 97 % of control

NCC(=O)NCC(=O)NC(CCCN=C(N)N)C(=O)O (stereo not drawn)
inactive: dose: 50.0 mg/kg/injection, schedule: Q01DX005 (ip), vehicle: saline 100 % of control | dose: 100.0 mg/kg/injection, schedule: Q01DX005 (ip), vehicle: saline 103 % of control | dose: 200.0 mg/kg/injection, schedule: Q01DX005 (ip), vehicle: saline 99 % of control

CC(=O)O.CC(=O)[O-].CC(=O)[O-].[Co+3].[NH-]CC[NH-].[NH-]CC[NH-]
inactive: [4] 100 % of control

CC1OC2=C(CC1O)C(=O)c1ccccc1C2=O (stereo not drawn)
inactive: [9] 102 % of control | [10] 102 % of control | dose: 400.0 mg/kg/injection, schedule: Q01DX001 (ip), vehicle: Klucel (hydroxypropylcellulose) (HPC) 100 % of control

O=C(O)CCCCC=C(c1ccccc1)c1ccccc1
inactive: [11] 101 % of control | [12] 102 % of control | dose: 200.0 mg/kg/injection, schedule: Q01DX005 (ip), vehicle: saline + Tween-80 + alcohol 101 % of control

CCOC(=O)C(=Cc1c[nH]c2ccc(Br)cc12)C(=O)OCC
inactive: dose: 100.0 mg/kg/injection, schedule: Q01DX009 (ip), vehicle: saline with Tween-80 104 % of control | dose: 100.0 mg/kg/injection, schedule: Q04DX003 (ip), vehicle: saline with Tween-80 109 % of control | dose: 200.0 mg/kg/injection, schedule: Q01DX009 (ip), vehicle: saline with Tween-80 87 % of control | dose: 200.0 mg/kg/injection, schedule: Q04DX003 (ip), vehicle: saline with Tween-80 109 % of control | dose: 400.0 mg/kg/injection, schedule: Q01DX009 (ip), vehicle: saline with Tween-80 100 % of control | dose: 400.0 mg/kg/injection, schedule: Q04DX003 (ip), vehicle: saline with Tween-80 100 % of control

Cc1cc2c(cc1C)NC1=C(N2)OC(c2cccc(O)c2)C1=O (stereo not drawn)
inactive: dose: 7.5 mg/kg/injection, schedule: Q01DX005 (ip), vehicle: Klucel (hydroxypropylcellulose) (HPC) 104 % of control | dose: 15.0 mg/kg/injection, schedule: Q01DX005 (ip), vehicle: Klucel (hydroxypropylcellulose) (HPC) 101 % of control | dose: 30.0 mg/kg/injection, schedule: Q01DX005 (ip), vehicle: Klucel (hydroxypropylcellulose) (HPC) 110 % of control

Cn1nnnc1/C=C/c1ccccc1
inactive: dose: 100.0 mg/kg/injection, schedule: Q04DX003 (ip), vehicle: Klucel (hydroxypropylcellulose) (HPC) 106 % of control | dose: 200.0 mg/kg/injection, schedule: Q04DX003 (ip), vehicle: Klucel (hydroxypropylcellulose) (HPC) 104 % of control | dose: 400.0 mg/kg/injection, schedule: Q04DX003 (ip), vehicle: Klucel (hydroxypropylcellulose) (HPC) 105 % of control

O=C(c1ccc(-c2ccccc2)cc1)C(Br)C(Br)c1ccccc1 (stereo not drawn)
inactive: dose: 25.0 mg/kg/injection, schedule: Q01DX009 (ip), vehicle: other 90 % of control | dose: 100.0 mg/kg/injection, schedule: Q01DX009 (ip), vehicle: other 90 % of control | dose: 200.0 mg/kg/injection, schedule: Q01DX009 (ip), vehicle: other 101 % of control | dose: 400.0 mg/kg/injection, schedule: Q01DX009 (ip), vehicle: other 116 % of control

CC1=CC(=O)[C@@H](O)[C@]2(C)[C@H]3[C@@H](O)[C@H](O)[C@@](C)(O)[C@@H]4[C@@H](O)C(=O)O[C@H](C[C@@H]12)[C@]34C
inactive: dose: 1.0 mg/kg/injection, schedule: Q01DX009 (ip), vehicle: saline + alcohol 99 % of control | dose: 2.0 mg/kg/injection, schedule: Q01DX009 (ip), vehicle: saline + alcohol 101 % of control | dose: 4.0 mg/kg/injection, schedule: Q01DX009 (ip), vehicle: saline + alcohol 99 % of control | dose: 8.0 mg/kg/injection, schedule: Q01DX009 (ip), vehicle: saline + alcohol 99 % of control

Cl[C](Cl)(Cl)[Hg][c]1ccccc1
inactive: dose: 1.5 mg/kg/injection, schedule: Q01DX009 (ip), vehicle: saline with Tween-80 98 % of control | dose: 3.0 mg/kg/injection, schedule: Q01DX009 (ip), vehicle: saline with Tween-80 99 % of control | dose: 6.0 mg/kg/injection, schedule: Q01DX009 (ip), vehicle: saline with Tween-80 114 % of control | dose: 12.0 mg/kg/injection, schedule: Q01DX009 (ip), vehicle: saline with Tween-80 89 % of control

NC(CC(=O)O)C(=O)O (stereo not drawn)
inactive: dose: 50.0 mg/kg/injection, schedule: Q01DX009 (ip), vehicle: Klucel (hydroxypropylcellulose) (HPC) 103 % of control and 105 % of control | dose: 100.0 mg/kg/injection, schedule: Q01DX009 (ip), vehicle: Klucel (hydroxypropylcellulose) (HPC) 105 % of control and 91 % of control | dose: 200.0 mg/kg/injection, schedule: Q01DX009 (ip), vehicle: Klucel (hydroxypropylcellulose) (HPC) 91 % of control | [5] 100 % of control | dose: 400.0 mg/kg/injection, schedule: Q01DX009 (ip), vehicle: saline 100 % of control | dose: 800.0 mg/kg/injection, schedule: Q01DX009 (ip), vehicle: saline 90 % of control

CCOC(=N)c1ccc(C(=N)OCC)cc1
inactive: dose: 60.0 mg/kg/injection, schedule: Q01DX005 (ip), vehicle: saline 97 % of control | dose: 120.0 mg/kg/injection, schedule: Q01DX005 (ip), vehicle: saline 100 % of control | dose: 240.0 mg/kg/injection, schedule: Q01DX005 (ip), vehicle: saline 104 % of control

Cc1nc2c(N)cc(Cl)cc2[nH]1
inactive: [11] 101 % of control | [6] 103 % of control | [12] 110 % of control | [7] 113 % of control | [8] 120 % of control
